# Assays:
# MGMT CpG island = assay: Bisulfite sequencing (BiSEQ) of TA clones; assay type: cell-based, human; settings: for location of methylated CpG sites: LN18 dCas9-DNMT3A-CD/sgRNA clones, Region 1 (sgRNA4) or Region 2 (sgRNA1, 2, 3)
# Description: FIG. 2 Bisulfite sequencing of representative clones with induced methylation patterns of CpG sites at CRISPR-targeted regions within the MGMT CpG island. (a) Map of MGMT CpG island, 762 bp in length, encompassing promoter, exon 1, enhancer, and intron 1 regions. Comprehensive map of the MGMT gene with superimposed locations of Illumina probes (yellow boxes) as well as exon (salmon), intron (purple), and promoter/upstream (gray) regions. Locations of complementary sequences to the four sgRNAs are as shown. Open star, half-closed star and closed star regions indicate locations of differentially methylated Illumina probes. F1/R1 and F2/R2 indicate nested PCR primer pairs for Region 1 and Region 2, respectively. Inset: MGMT CpG island (individual CpG sites in light green) and relative locations of Region 1 and Region 2. CpG sites 22, 57, 72, and 96 indicate the specific sites flanking each region, numbered in order from 5′ to 3′ within the CpG island. Differentially methylated regions are shown (DMR1 and DMR2), located within assayed Region 1 and 2, respectively. MSP region is also shown within DMR2. Genetic regions and positions on Chromosome 10 were determined using the UCSC genome browser (GRCh37/hg19 assembly) and the 850K array probe annotation file provided by Illumina. (b) Lollipop schematic illustrating the distribution of CpG methylation sites in each representative clonal population (red circle=methylated site; gray circle=unmethylated site). Genomic DNA from LN18 cells containing either dCas9-DNMT3A/non-specific sgRNA or dCas9-DNMT3A/sgRNAs underwent sodium bisulfite treatment, followed by nested PCR amplification. Amplicons of Region 1 and Region 2 were obtained separately and used to generate individual clones for each region via TA cloning. Abbreviations for individual clone nomenclature (e.g., “4-NSC1” vs. “13-NSC1”): “4”=Region containing sgRNA4 target sequence; “13”=Region containing sgRNA 1, 2, 3 target sequences. “NSC” vs. “SgR” indicates whether clone source was transfected with non-specific sgRNA or sgRNA1, 2, 3, 4. Numbers following NSC or SgR designation indicate individual clone numbers. Each row of the schematic (per category, NSC or SgR) represents a single clone. Regional CpG sites as per Malley et al (2011): DMR1=CpG 25-50; DMR2=CpG 73-90; MSP=CpG 76-87 (MSP-F=CpG 76-80; MSP-R=CpG 84-87). Core/minimal promoter=CpG 50-62; Enhancer=CpG 82-87. […] Blue arrows indicate CpG sites that are methylated (converted from T-G to C-G). Region 1 includes the sequence targeted by sgRNA4 (s4). Region 2 includes the sequence targeted by sgRNA 1, 2 and 3 (s1, s2, s3).
# Bisulfite Sequencing. DNA was isolated using DNEasy Blood & Tissue Kit (Qiagen, Catalog #69506). Bisulfite conversion was accomplished using EZ DNA Methylation-Gold (Zymo Research, Catalog #D5005) per kit protocol. Nested PCR primers were used as follows: […]
# Region 1: First PCR primer pair F4/R4; second PCR pair F5/R4.
# Region 2: First PCR primer pair F1/R1; second PCR pair F1/SeqR.
# Sequencing reactions were performed using BigDye Terminator v3.1 Cycle Sequencing Kit (ThermoFisher, Cat #433750) with sequencing primers (R4 primer=Region 1; SeqR primer=Region 2); samples were purified by PCR Clean-Up Performa Spin Columns (EdgeBio Cat #13266) and submitted for Sanger sequencing analysis (Laragen, Culver City, CA).
# TA Cloning. Sodium bisulfite-treated genomic DNA underwent nested PCR as above, for either Region 1 or 2. […]
# LN18 human glioma cells [1] = assay: MTT survival assay, TMZ sensitivity; assay type: cell-based; settings: TMZ 25 μM or 100 μM, 5 days, vs DMSO
# Experimental: FIG. 4 Effects of dCas9-DNMT3A-CD/MGMT-specific sgRNA targeted methylation on the sensitivity of glioma cells to temozolomide. […] Negative control: LN18 NSC cells. The “n” indicates the number of separate experiments performed for each cell type. Results were normalized to the average negative control treatment condition (drug vehicle DMSO). TMZ concentrations ranged from 25 µM to 100 µM. Horizontal bars for all figures represent post hoc Tukey's multiple comparisons test results for groups of interest following two-way ANOVA (“ns” indicates “p>0.05”; * indicates p<0.05; ** indicates p<0.01; *** indicates p<0.001; **** indicates p<0.0001). (a) TMZ sensitivity measured via MTT survival assays in LN18 cells co-expressing dCas9-DNMT3A-CD (d3A) and MGMT-targeting sgRNAs (sg1, 2, 3, 4) compared to NSC lines. […] MTT cell survival was calculated by subtracting […] for TMZ-treated cells (25 µM and 100 µM, 5 days) versus DMSO treatment control condition, followed by normalization to the average control condition.
# Cell Survival Assays. […] Formazan product was extracted by cell lysis with DMSO (300 μL) and measured (560 nm absorbance with background subtraction of 660 nm). […]
# LN18 human glioma cells [2] = assay: Clonogenic assay, TMZ sensitivity; assay type: cell-based; settings: TMZ 12 days total treatment, vs DMSO
# MGMT = biological target: T1, MGMT (Homo sapiens, UniProt P16455); settings: Phase II clinical trial, cited from earlier work
# T1 construct: host or cells: patients (clinical trial)
# T1 sequence (P16455 1-207): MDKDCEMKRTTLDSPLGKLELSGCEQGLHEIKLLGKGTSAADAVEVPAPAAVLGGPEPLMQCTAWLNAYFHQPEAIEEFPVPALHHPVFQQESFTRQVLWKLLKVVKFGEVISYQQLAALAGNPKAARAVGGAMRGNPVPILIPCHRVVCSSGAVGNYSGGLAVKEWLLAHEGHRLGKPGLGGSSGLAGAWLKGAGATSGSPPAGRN
molecule,measurement,setting,value
"5′-AGGCGCCCTCACTTCGCCGT-3′ (guide (5'-AGGCGCCCTCACTTCGCCGT-3'; as printed in the source, key not given here) [sgRNA2]",location of methylated CpG sites,MGMT CpG island,"CpG 77, 81-89"
"5′-AGGGCATGCGCCGACCCGGT-3′ (guide (5'-AGGGCATGCGCCGACCCGGT-3'; as printed in the source, key not given here) [sgRNA4]",location of methylated CpG sites,MGMT CpG island,CpG 22-38
same,methylation radius upstream from sgRNA,"MGMT CpG island; Region 1, to upstream 5′ limit of amplicon (CpG 22)",20 bp
"5′-CTTTGCGTCCCGACGCCCGC-3′ (guide (5'-CTTTGCGTCCCGACGCCCGC-3'; as printed in the source, key not given here) [sgRNA3]",location of methylated CpG sites,MGMT CpG island,"CpG 77, 81-89"
"5′-GGTGCGCACCGTTTGCGACT-3′ (guide (5'-GGTGCGCACCGTTTGCGACT-3'; as printed in the source, key not given here) [sgRNA1]",location of methylated CpG sites,MGMT CpG island,"CpG 77, 81-89"
5′-GTATTACTGATATTGGTGGG-3′ (chemistry not given here) [NSC],TMZ sensitivity (MTT survival),LN18 human glioma cells [1],Essentially no TMZ sensitivity
same,TMZ sensitivity (clonogenic survival),LN18 human glioma cells [2],Essentially no TMZ sensitivity
Nc1nc(OCc2ccccc2)c2nc[nH]c2n1 [O-6-benzylguanine],clinical benefit,MGMT,limited benefits
same,toxicity,MGMT; including off-target bone marrow suppression,severe dose-limiting toxicities

# Source: US20260176628A1, “TARGETED EPIGENETIC EDITING AS NOVEL THERAPY FOR MALIGNANT GLIOMA” (The Regents of the University of California, priority 2022, published 2026)
